The text below walks through data of PubChem BioAssay (NCI).

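Assay format: 96-well plates, 48-hour exposure. Here, GI50 denotes the concentration required for 50% inhibition of growth. Definition used: TGI = concentration required for complete inhibition of growth.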

Some test systems named below: A498 renal; A549 NSCLC; ACHN renal; EKVX NSCLC; HL-60(TB) leukemia; HT29 colon; M14 melanoma; NCI-H23 lung; T-47D breast; TK-10 renal.
What all share (assay): NCI tumour cell line growth inhibition, 48 h

On to `NS(=O)(=O)c1ccc(/C=C/c2cccc(O)c2)cc1`, for which the TGI was over 100 µM in the assay with A498 renal; over 100 µM in the assay with A549 NSCLC; 99.6 µM in the assay on ACHN renal; over 100 µM with EKVX NSCLC; over 100 µM in the assay on HL-60(TB) leukemia; over 100 µM in the assay on HT29 colon. The TGI was over 100 µM in the assay on M14 melanoma, over 100 µM in the assay on NCI-H23 lung, 87.4 µM in the assay on T-47D breast and 93.7 µM with TK-10 renal. In addition, the GI50 in the assay with A549 NSCLC is 19.8 µM; with ACHN renal, 25.8 µM; in the assay on HL-60(TB) leukemia, 41.4 µM; with HT29 colon, 43.3 µM; with NCI-H23 lung, 46.1 µM.

Take `COc1ccc(-c2cn3c(n2)sc2cc(C)ccc23)cc1`: the TGI is 47.4 µM in the assay on A498 renal; over 100 µM in the assay with A549 NSCLC; over 100 µM in the assay with ACHN renal; 39.7 µM in the assay with EKVX NSCLC; 23 µM with HL-60(TB) leukemia; over 100 µM with HT29 colon. For the same compound, the TGI was over 100 µM in the assay on M14 melanoma, over 100 µM in the assay on NCI-H23 lung, over 100 µM with T-47D breast and 47.3 µM in the assay on TK-10 renal.

Turning to `CC(=O)Oc1ccc2c(c1)CC[C@@H]1C2[C@@H](O[N+](=O)[O-])C[C@@]2(C)C1CC[C@@H]2O` (stereo not given in full), the TGI with A498 renal was 72.5 µM; in the assay on A549 NSCLC it was over 100 µM; with ACHN renal it was over 100 µM; with EKVX NSCLC, 93.6 µM; in the assay on HL-60(TB) leukemia it was 34.4 µM; in the assay on HT29 colon, over 76.6 µM. The TGI with M14 melanoma, in the assay on NCI-H23 lung, in the assay on T-47D breast and with TK-10 renal was over 100 µM each time.

As for `COc1cc2[nH]c(-c3ccccc3)cc(=O)c2cc1OC`, the TGI is over 100 µM with A498 renal; over 69.8 µM with A549 NSCLC; over 100 µM with ACHN renal; over 100 µM in the assay with EKVX NSCLC; 41 µM in the assay on HL-60(TB) leukemia; 56.7 µM in the assay on HT29 colon. The TGI with M14 melanoma was over 76.2 µM; in the assay with NCI-H23 lung, over 84.6 µM; in the assay on T-47D breast, over 100 µM; in the assay on TK-10 renal, 98.7 µM.

For the compound `NC1CCC(c2cc3ccccc3s2)(N2CCCCC2)CC1` (stereo not given), the TGI in the assay with A498 renal is 22.9 µM; in the assay with A549 NSCLC it was 8.46 µM; in the assay with ACHN renal, 12.5 µM; in the assay with EKVX NSCLC it was 11.9 µM; with HL-60(TB) leukemia, 4.58 µM; in the assay with HT29 colon, 2.45 µM. In addition, the TGI was determined as 2.88 µM in the assay on M14 melanoma, 3.23 µM in the assay on NCI-H23 lung, 5.51 µM with T-47D breast and 19 µM with TK-10 renal.

`COc1cc2c(cc1OCCCC(=O)Nc1cc(C(=O)Nc3cc(C(=O)NCCCN(C)C)n(C)n3)n(C)n1)N=CC1CCCN1C2=O` (stereo not given): the TGI in the assay with A498 renal was 59.2 µM; in the assay with A549 NSCLC it was over 100 µM; with ACHN renal, 29.7 µM; in the assay on EKVX NSCLC, over 100 µM; with HL-60(TB) leukemia, 32.1 µM; with HT29 colon, 30.8 µM. The TGI in the assay on M14 melanoma was determined as 33.8 µM; in the assay on NCI-H23 lung, 39.1 µM; in the assay with T-47D breast it was 53 µM; in the assay with TK-10 renal, 35.7 µM.

Take `NNC(=O)c1ccccc1NC(=O)/C(=C/c1ccccc1)NC(=O)c1ccccc1`: the TGI with A498 renal, with A549 NSCLC, with ACHN renal, in the assay with EKVX NSCLC, in the assay with HL-60(TB) leukemia and in the assay with HT29 colon was over 100 µM in each case. The TGI with M14 melanoma, in the assay on NCI-H23 lung, in the assay with T-47D breast and in the assay on TK-10 renal was over 100 µM each time.

For `COC(=O)CC1C2CC3C(C2=O)C13` (stereo not given), the TGI in the assay with A498 renal, with A549 NSCLC, in the assay with ACHN renal, in the assay with EKVX NSCLC, in the assay on HL-60(TB) leukemia and with HT29 colon was over 100 µM throughout. For the same compound, the TGI with M14 melanoma, in the assay with NCI-H23 lung, with T-47D breast and with TK-10 renal was over 100 µM each time.

In the case of `CCCCCCCCOCC1S(=O)(=O)OCCOS1(=O)=O`, the TGI in the assay on A498 renal, with A549 NSCLC, in the assay with ACHN renal, in the assay with EKVX NSCLC, with HL-60(TB) leukemia and in the assay with HT29 colon was over 100 µM each time. Besides, the TGI in the assay on M14 melanoma, in the assay with NCI-H23 lung, in the assay on T-47D breast and with TK-10 renal was over 100 µM in each case.

With `CC1=Nn2c(nc3sc4c(c3c2=O)CCCC4)SC1`, the TGI in the assay on A498 renal is over 100 µM; with A549 NSCLC, over 100 µM; with ACHN renal it was over 100 µM; in the assay with EKVX NSCLC it was over 100 µM; in the assay with HL-60(TB) leukemia it was over 87.4 µM; with HT29 colon, over 100 µM. For the same compound, the TGI in the assay with M14 melanoma, with NCI-H23 lung, with T-47D breast and with TK-10 renal was over 100 µM each time.

Regarding `CC(=O)Nc1ccc(Nc2nc(=O)[nH]c(=O)[nH]2)cc1`, the TGI in the assay on A498 renal, with A549 NSCLC, in the assay on ACHN renal, in the assay with EKVX NSCLC, in the assay with HL-60(TB) leukemia and with HT29 colon was over 100 µM throughout. Also, the TGI in the assay with M14 melanoma, in the assay on NCI-H23 lung, in the assay on T-47D breast and with TK-10 renal was over 100 µM throughout.

For the compound `COc1cc(C2c3cc4c(cc3OC(N3CCOCC3)C2C)OCO4)cc(OC)c1O` (stereo not given), the TGI with A498 renal is 41.2 µM; in the assay on A549 NSCLC, over 59.9 µM; in the assay on ACHN renal, over 74.9 µM; in the assay with EKVX NSCLC, over 94 µM; in the assay with HL-60(TB) leukemia, over 26 µM; with HT29 colon it was 27.7 µM. In addition, the TGI in the assay on M14 melanoma is over 100 µM; in the assay on NCI-H23 lung, over 100 µM; with T-47D breast it was over 100 µM; with TK-10 renal, 70.6 µM.

Consider `C=C(Br)CN(C#N)CC(=C)Br`, for which the TGI with A498 renal, in the assay with A549 NSCLC, with ACHN renal, with EKVX NSCLC, with HL-60(TB) leukemia and with HT29 colon was over 100 µM each time. In addition, the TGI with M14 melanoma, in the assay with NCI-H23 lung, with T-47D breast and in the assay on TK-10 renal was over 100 µM each time.
